The source made the active and inactive calls. How the calls were made is not given here.
The compounds below were run on Jurkat NF-kB reporter, TCR-induced, luciferase luminescence (assay: T-cell NF-kB luciferase reporter inhibition – Jurkat cells, luminescence, dose response (AID 489035)).

Row | Structure (SMILES) | IC50
1 | CCC(C)(C)c1ccc(OCCCC[n+]2cccc(C)c2C)c(C(C)(C)CC)c1 | 4.76 µM
2 | CC(=O)Nc1ccc(S(=O)(=O)N2CCCc3ccccc32)cc1 | > 80 µM (inactive)
3 | CCOC(=O)C(C)Oc1cccc2c(=O)n(CC(=O)NCc3ccco3)ccc12 (stereo unspecified) | > 80 µM (inactive)
4 | CC(C)Oc1ccccc1C1CC(=O)Nc2cc3c(cc21)OCO3 (stereo unspecified) | > 80 µM (inactive)
5 | COc1ccc(-n2nnnc2-c2cccc(OC)c2)cc1 | > 80 µM (inactive)
6 | COc1cccc(N2CCN(C(=O)c3ccc(CS(=O)c4ccccc4Cl)o3)CC2)c1 (stereo unspecified) | > 80 µM (inactive)
7 | CCCCCc1ccc(OCCCC[n+]2ccc(C)cc2)c(CCCCC)c1 | 8.23 µM
8 | CCC(C)C(=O)N[C@@H](c1ccccc1)[C@@H](O)C(=O)O[C@H]1C[C@@]2(O)[C@@H](OC(=O)c3ccccc3)C3[C@](C)(C(=O)[C@H](OC(C)=O)C(=C1C)C2(C)C)[C@@H](O)C[C@H]1OC[C@@]31OC(C)=O (stereo partly specified) | > 80 µM (inactive)
9 | N#Cc1ccc(-c2cccs2)nc1SCc1cccnc1 | > 80 µM (inactive)
10 | O=Cc1cc2ccccc2nc1SCc1ccc(Cl)c(Cl)c1 | > 80 µM (inactive)
11 | CC(=O)O[C@H]1C(=O)[C@@]2(C)C([C@H](OC(=O)c3ccccc3)[C@]3(O)C[C@H](OC(=O)[C@H](O)[C@@H](NC(=O)c4ccccc4)c4ccccc4)C(C)=C1C3(C)C)[C@]1(OC(C)=O)CO[C@@H]1C[C@H]2O (stereo partly specified) | < 0.16 µM
12 | CCCCC(=O)NC(c1ccc(Cl)cc1Cl)c1ccc2cccnc2c1O (stereo unspecified) | 9.87 µM
13 | Cn1ncc2c(N3CCN(c4ccc(Cl)c(Cl)c4)CC3)ncnc21 | 7.55 µM
14 | CCCN1C=CC(=C2C(=O)c3ccccc3C2=O)C=C1 | 0.52 µM
15 | CC(C)(C)OC(=O)NCCCCCc1cn(CC(=O)NCCCCCCCCCCC(=O)N2CCN(C(=O)OC(C)(C)C)CC2)nn1 | > 80 µM (inactive)
16 | CCOc1ccc(Nc2cc(C)nc(-n3nc(C)cc3C)n2)cc1 | > 80 µM (inactive)
17 | CC(C)(C)c1ccc(C(=O)Nc2ccc(Oc3cccnc3)nc2)cc1 | > 80 µM (inactive)
18 | Cc1nc(NCc2ccco2)c2c(C)c(C)sc2n1 | 3.1 µM
19 | C/C=C(\C)C(=O)N[C@@H](c1ccccc1)[C@@H](O)C(=O)O[C@H]1C[C@@]2(O)[C@@H](OC(=O)c3ccccc3)C3[C@](C)(C(=O)[C@H](O)C(=C1C)C2(C)C)[C@@H](O)C[C@H]1OC[C@@]31OC(C)=O (stereo partly specified) | > 80 µM (inactive)
20 | Cc1ccc(COC(=O)c2cc([N+](=O)[O-])ccc2N2CCOCC2)cc1 | 49 µM (inactive)
21 | Cc1sc2ncnc(NC3CCN(Cc4ccccc4)CC3)c2c1C | > 80 µM (inactive)

Source: PubChem BioAssay AID489035 (Sanford-Burnham Center for Chemical Genomics, 2010)
